Measurements as given in EP2818472A1, “Imidazo[4,5-c]pyridine and pyrrolo[3,2-c]pyridine compounds as G-protein-coupled receptor kinase 5 (GRK5) modulators” (Max-Planck-Gesellschaft zur Förderung der Wissenschaften …, priority 2013, dated 2014).

The compounds below were run on beta-TC6 cells (assay: Insulin HTRF assay (relative activity Ar) in beta-TC6 cells). Settings: Mus musculus, Beta-TC6, 4 h, insulin HTRF, supernatant of beta-TC6 cells, incubation with test compound at 37°C for 2, 3, 4h; read-out: Ar (relative activity).
Type: cell-based, mouse
Procedure, shortened: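 beta-TC6 cells (15k/well, seeded 24 or 48 h) washed, then exposed to compound in induction buffer (0.5% DMSO final) for 2, 3 or 4 h at 37°C.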

Row | Structure (SMILES) | Emax
1 | COc1ccc(CNc2nc3cnc(Nc4cc(OC)c(OC)c(OC)c4)cc3n2C)cc1OC [Compound 599, N2-[(3,4-dimethoxyphenyl)methyl]-1-methyl-N6-(3,4,5-trimethoxyphenyl)imidazo[4,5-c]pyridine-2,6-diamine] | 50 to 100%
2 | COc1ccc(CNc2nc3cnc(Nc4ccc(NC(C)=O)cc4)cc3n2C)cc1OC [Compound 600, N-[4-[[2-[(3,4-dimethoxyphenyl)methylamino]-1-methyl-imidazo[4,5-c]pyridin-6-yl]amino]phenyl]acetamide] | 50 to 100%
3 | COc1ccc(CNc2nc3cnc(Nc4ccc(C(N)=O)cc4)cc3n2C)cc1OC [Compound 601, 4-[[2-[(3,4-dimethoxyphenyl)methylamino]-1-methyl-imidazo[4,5-c]pyridin-6-yl]amino]benzamide] | 50 to 100%
4 | COc1ccc(Nc2cc3c(cn2)nc(NCc2ccc(OC)c(OC)c2)n3C)c(OC)c1 [Compound 602, N6-(2,4-dimethoxyphenyl)-N2-[(3,4-dimethoxyphenyl)methyl]-1-methyl-imidazo[4,5-c]pyridine-2,6-diamine] | 30 to 50%
5 | COc1ccc(CNc2nc3cnc(Nc4ccc(OC)c(OC)c4)cc3n2C)cc1OC [Compound 603, N6-(3,4-dimethoxyphenyl)-N2-[(3,4-dimethoxyphenyl)methyl]-1-methyl-imidazo[4,5-c]pyridine-2,6-diamine] | 50 to 100%
6 | COc1ccc(CNc2nc3cnc(Nc4ccccc4)cc3n2C)cc1OC [Compound 604, N2-[(3,4-dimethoxyphenyl)methyl]-1-methyl-N6-phenyl-imidazo[4,5-c]pyridine-2,6-diamine] | 30 to 50%
7 | COc1ccc(CNc2nc3cnc(Nc4ccc(N5CCN(C)CC5)cc4)cc3n2C)cc1OC [Compound 605, N2-[(3,4-dimethoxyphenyl)methyl]-1-methyl-N6-[4-(4-methylpiperazin-1-yl)phenyl]imidazo[4,5-c]pyridine-2,6-diamine] | 50 to 100%
8 | COc1ccc(Nc2cc3c(cn2)nc(NCc2ccc(OC)c(OC)c2)n3C)cc1 [Compound 606, N2-[(3,4-dimethoxyphenyl)methyl]-N6-(4-methoxyphenyl)-1-methyl-imidazo[4,5-c]pyridine-2,6-diamine] | 50 to 100%
9 | COc1ccc(CNc2nc3cnc(Nc4ccc(F)cc4)cc3n2C)cc1OC [Compound 607, N2-[(3,4-dimethoxyphenyl)methyl]-N6-(4-fluorophenyl)-1-methyl-imidazo[4,5-c]pyridine-2,6-diamine] | 50 to 100%
10 | COc1ccc(CNc2nc3cnc(Nc4cccc(S(C)(=O)=O)c4)cc3n2C)cc1OC [Compound 608, N2-[(3,4-dimethoxyphenyl)methyl]-1-methyl-N6-(3-methylsulfonylphenyl)imidazo[4,5-c]pyridine-2,6-diamine] | 30 to 50%
11 | CNc1nc2cnc(Nc3cc(OC)c(OC)c(OC)c3)cc2n1C [Compound 609, N2,1-dimethyl-N6-(3,4,5-trimethoxyphenyl)imidazo[4,5-c]pyridine-2,6-diamine] | 50 to 100%
12 | CNc1nc2cnc(Nc3ccc(OC)cc3OC)cc2n1C [Compound 610, N6-(2,4-dimethoxyphenyl)-N2,1-dimethyl-imidazo[4,5-c]pyridine-2,6-diamine] | 50 to 100%
13 | CNc1nc2cnc(Nc3ccc(F)cc3)cc2n1C [Compound 611, N6-(4-fluorophenyl)-N2,1-dimethyl-imidazo[4,5-c]pyridine-2,6-diamine] | 30 to 50%
14 | CNc1nc2cnc(-c3ccc(O)c(OC)c3)cc2n1C [Compound 612, 2-methoxy-4-[1-methyl-2-(methylamino)imidazo[4,5-c]pyridin-6-yl]phenol] | 50 to 100%
15 | COc1ccccc1Nc1nc2cnc(-c3cccnc3)cc2n1C [Compound 613, N-(2-methoxyphenyl)-1-methyl-6-(3-pyridyl)imidazo[4,5-c]pyridin-2-amine] | 50 to 100%
16 | Cn1c(NCc2ccccc2)nc2cnc(-c3ccc(N4CCOCC4)cc3)cc21 [Compound 614, N-benzyl-1-methyl-6-(4-morpholinophenyl)imidazo[4,5-c]pyridin-2-amine] | 50 to 100%
17 | CN(C)c1ccc(-c2cc3c(cn2)nc(NCc2ccccc2)n3C)cc1 [Compound 615, N-benzyl-6-(4-dimethylaminophenyl)-1-methyl-imidazo[4,5-c]pyridin-2-amine] | > 100%
18 | COc1cc(Nc2cc3c(cn2)nc(NCc2ccccc2)n3C)cc(OC)c1OC [Compound 616, N2-benzyl-1-methyl-N6-(3,4,5-trimethoxyphenyl)imidazo[4,5-c]pyridine-2,6-diamine] | 50 to 100%
19 | CC(=O)Nc1ccc(Nc2cc3c(cn2)nc(NCc2ccccc2)n3C)cc1 [Compound 617, N-[4-[[2-(benzylamino)-1-methyl-imidazo[4,5-c]pyridin-6-yl]amino]phenyl]acetamide] | 50 to 100%
20 | COc1ccc(Nc2cc3c(cn2)nc(NCc2ccccc2)n3C)cn1 [Compound 618, N2-benzyl-N6-(6-methoxy-3-pyridyl)-1-methyl-imidazo[4,5-c]pyridine-2,6-diamine] | 50 to 100%
21 | CN(C)c1cccc(Nc2cc3c(cn2)nc(NCc2ccccc2)n3C)c1 [Compound 619, N2-benzyl-N6-[3-(dimethylamino)phenyl]-1-methyl-imidazo[4,5-c]pyridine-2,6-diamine] | 50 to 100%

Row | Structure (SMILES) | Emax
22 | CN(C)c1cccc(-c2cc3c(cn2)nc(NCc2ccccc2)n3C)c1 [Compound 620, N-benzyl-6-[3-(dimethylamino)phenyl]-1-methyl-imidazo[4,5-c]pyridin-2-amine] | > 100%
23 | COc1ccc(Nc2cc3c(cn2)nc(NCc2ccccc2)n3C)cc1 [Compound 621, N2-benzyl-N6-(4-methoxyphenyl)-1-methyl-imidazo[4,5-c]pyridine-2,6-diamine] | 50 to 100%
24 | Cn1c(NCc2ccccc2)nc2cnc(Nc3cccc(O)c3)cc21 [Compound 622, 3-[[2-(benzylamino)-1-methyl-imidazo[4,5-c]pyridin-6-yl]amino]phenol] | 50 to 100%
25 | Cn1c(NCc2ccccc2)nc2cnc(-c3cncnc3)cc21 [Compound 623, N-benzyl-1-methyl-6-pyrimidin-5-yl-imidazo[4,5-c]pyridin-2-amine] | 30 to 50%
26 | Cn1cc(-c2cc3c(cn2)nc(NCc2ccccc2)n3C)cn1 [Compound 624, N-benzyl-1-methyl-6-(1-methylpyrazol-4-yl)imidazo[4,5-c]pyridin-2-amine] | 30 to 50%
27 | Cn1c(NCc2ccccc2)nc2cnc(-c3ccc(N)nc3)cc21 [Compound 625, 6-(6-amino-3-pyridyl)-N-benzyl-1-methyl-imidazo[4,5-c]pyridin-2-amine] | > 100%
28 | CN(C)C(=O)c1ccc(Nc2cc3c(cn2)nc(NCc2ccccc2)n3C)cc1 [Compound 626, 4-[[2-(benzylamino)-1-methyl-imidazo[4,5-c]pyridin-6-yl]amino]-N,N-dimethyl-benzamide] | 30 to 50%
29 | CC(=O)Nc1cccc(Nc2cc3c(cn2)nc(NCc2ccccc2)n3C)c1 [Compound 627, N-[3-[[2-(benzylamino)-1-methyl-imidazo[4,5-c]pyridin-6-yl]amino]phenyl]acetamide] | 50 to 100%
30 | CC(=O)c1cccc(Nc2cc3c(cn2)nc(NCc2ccccc2)n3C)c1 [Compound 628, 1-[3-[[2-(benzylamino)-1-methyl-imidazo[4,5-c]pyridin-6-yl]amino]phenyl]ethanone] | 30 to 50%
31 | Cn1c(NCc2ccccc2)nc2cnc(Nc3cccc(F)c3)cc21 [Compound 629, N2-benzyl-N6-(3-fluorophenyl)-1-methyl-imidazo[4,5-c]pyridine-2,6-diamine] | 30 to 50%
32 | Cn1c(Nc2ccccc2)nc2cnc(-c3ccc(N4CCOCC4)cc3)cc21 [Compound 630, 1-methyl-6-(4-morpholinophenyl)-N-phenyl-imidazo[4,5-c]pyridin-2-amine] | 50 to 100%
33 | CN(C)c1ccc(-c2cc3c(cn2)nc(Nc2ccccc2)n3C)cc1 [Compound 631, 6-(4-dimethylaminophenyl)-1-methyl-N-phenyl-imidazo[4,5-c]pyridin-2-amine] | > 100%
34 | COc1ccc(Nc2cc3c(cn2)nc(Nc2ccccc2)n3C)cc1OC [Compound 632, N6-(3,4-dimethoxyphenyl)-1-methyl-N2-phenyl-imidazo[4,5-c]pyridine-2,6-diamine] | 50 to 100%
35 | Cn1c(Nc2ccccc2)nc2cnc(Nc3cccnc3)cc21 [Compound 633, 1-methyl-N2-phenyl-N6-(3-pyridyl)imidazo[4,5-c]pyridine-2,6-diamine] | 50 to 100%
36 | Cn1c(Nc2ccccc2)nc2cnc(Nc3ccccc3)cc21 [Compound 634, 1-methyl-N2,N6-diphenyl-imidazo[4,5-c]pyridine-2,6-diamine] | 50 to 100%
37 | Cn1c(Nc2ccccc2)nc2cnc(-c3cccc4ccccc34)cc21 [Compound 635, 1-methyl-6-(1-naphthyl)-N-phenyl-imidazo[4,5-c]pyridin-2-amine] | 30 to 50%
38 | Cn1c(Nc2ccccc2)nc2cnc(Nc3ccncc3)cc21 [Compound 636, 1-methyl-N2-phenyl-N6-(4-pyridyl)imidazo[4,5-c]pyridine-2,6-diamine] | 50 to 100%
39 | Cn1c(Nc2ccccc2)nc2cnc(Nc3ccccn3)cc21 [Compound 637, 1-methyl-N2-phenyl-N6-(2-pyridyl)imidazo[4,5-c]pyridine-2,6-diamine] | 30 to 50%
40 | Cn1c(Nc2ccccc2)nc2cnc(Nc3cccc(O)c3)cc21 [Compound 638, 3-[(2-anilino-1-methyl-imidazo[4,5-c]pyridin-6-yl)amino]phenol] | 50 to 100%
41 | Cn1c(Nc2ccccc2)nc2cnc(Nc3ccc(S(C)(=O)=O)cc3)cc21 [Compound 639, 1-methyl-N6-(4-methylsulfonylphenyl)-N2-phenyl-imidazo[4,5-c]pyridine-2,6-diamine] | 50 to 100%
42 | Cn1c(NCC2CCCO2)nc2cnc(-c3ccc(N4CCOCC4)cc3)cc21 (stereo not drawn) [Compound 640, 1-methyl-6-(4-morpholinophenyl)-N-(tetrahydrofuran-2-ylmethyl)imidazo[4,5-c]pyridin-2-amine] | 30 to 50%
